Measured values from US9877937B2, “Compounds and methods for treating aberrant adrenocortical cell disorders” (Millendo Therapeutics, Inc., priority 2012, dated 2018).
“Also recorded” adds a separate entry of the source. Where a name gives a salt, the structure may show the parent alone. Read-outs that look alike come from different tables or passages of the source.

Key:
[1] = tested on: xenografts of the human ACC-derived cell line H295R; test: H295R xenografts in SCID mice, treatment of established tumors (Examples 1 and 2); format: in vivo
Description: To investigate the potential therapeutic effect of ATR-101 in a mouse model of adrenocortical carcinoma (ACC), xenografts of the human ACC-derived cell line H295R in SCID mice (6-7 week males) were established. After the xenografts had grown to measurable size, the mice were randomized in two groups. The treatment group was administered 300 mg/kg/day ATR-101 by oral gavage. The control group was administered the vehicle without ATR-101. The tumor size was measured using calipers before and on the indicated days after starting administration of ATR-101.
To determine if the effects of ATR-101 on ACC-derived cell line xenotransplants were reproducible, the experiment using xenotransplants of the same H295R cell line in SCID mice (10-11 week males) were repeated.

[2] = tested on: ACC-derived cell line H295R xenografts; test: ACC xenograft establishment in SCID mice injected with H295R cells (Example 6); format: in vivo
Description: FIG. 7 depicts the effects of ATR-101 administration on ACC xenograft establishment. Randomized cohorts of 10 mice injected with H295R cells were administered 700 mg/kg/day ATR-101 for 4 days followed by 300 mg/kg/day ATR-101 or vehicle by gavage beginning 14 days after cell injection. The sizes of the xenografts were measured three times each week.
(§1) To investigate the potential therapeutic benefit of ATR-101 in the establishment of ACC xenografts in a mouse model of ACC, ACC-derived cell line H295R was injected in SCID mice (6-7 week males). 1×10^8 cells in 0.2 ml DMEM were injected under the skin in the right dorsal flank regions of SCID mice. Two weeks after injection, the mice were randomized in groups of 10. ATR-101 was administered at 700 mg/kg/day for 4 days, followed by 300 mg/kg/day by oral gavage in 10% DMSO, 0.5% CMC, 0.9% NaCl, 0.2% Tween, pH 3. Control mice were administered vehicle. The tumor size was measured using calipers three times a week. Urinary cortisol was measured at various time points after start of ATR-101 or vehicle administration.

adrenal gland [3] = test: Adrenal gland histopathology in dogs; format: in vivo; conditions: 300 mg/kg/day for 28 days; day 28; hydrochloride
Description: Left and right adrenal glands from dogs treated with a high dose 300 mg/kg/day of ATR-101 for 28 days and control animals were collected at necropsy and fixed in 10% neutral buffered formalin, processed by routine paraffin technique, sectioned longitudinally, and stained with hematoxylin and eosin for routine light microscopy (FIGS. 15A-E).

[4] = molecular target: complex II of the electron transport chain (Homo sapiens, UniProt O14521+P21912+P31040+Q99643); conditions: isolated mitochondria; cited from earlier work
Sequence of complex II of the electron transport chain (P31040 43-664): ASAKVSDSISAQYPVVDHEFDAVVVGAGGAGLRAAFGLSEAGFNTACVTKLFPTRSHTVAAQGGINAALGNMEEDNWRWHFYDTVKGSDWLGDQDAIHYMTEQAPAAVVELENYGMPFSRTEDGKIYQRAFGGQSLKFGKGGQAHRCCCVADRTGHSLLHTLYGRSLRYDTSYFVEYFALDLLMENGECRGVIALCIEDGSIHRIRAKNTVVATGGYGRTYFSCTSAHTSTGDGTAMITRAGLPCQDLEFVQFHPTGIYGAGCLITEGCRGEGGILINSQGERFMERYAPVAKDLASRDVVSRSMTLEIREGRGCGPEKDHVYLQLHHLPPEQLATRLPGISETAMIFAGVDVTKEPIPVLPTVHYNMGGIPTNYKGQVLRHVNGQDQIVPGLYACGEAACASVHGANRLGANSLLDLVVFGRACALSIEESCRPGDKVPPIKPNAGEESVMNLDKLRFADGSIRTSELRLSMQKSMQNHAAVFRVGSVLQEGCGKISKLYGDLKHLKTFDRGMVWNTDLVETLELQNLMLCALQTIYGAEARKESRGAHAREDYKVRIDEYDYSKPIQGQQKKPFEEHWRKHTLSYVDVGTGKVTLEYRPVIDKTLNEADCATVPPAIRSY
Sequence of complex II of the electron transport chain (P21912 29-280): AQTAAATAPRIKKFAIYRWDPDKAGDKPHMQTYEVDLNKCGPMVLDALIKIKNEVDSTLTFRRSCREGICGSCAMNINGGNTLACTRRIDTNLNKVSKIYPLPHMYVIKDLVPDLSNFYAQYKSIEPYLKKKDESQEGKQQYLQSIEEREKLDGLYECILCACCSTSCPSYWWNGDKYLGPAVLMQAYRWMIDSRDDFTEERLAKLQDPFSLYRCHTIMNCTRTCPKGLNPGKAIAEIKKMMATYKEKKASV
Sequence of complex II of the electron transport chain (Q99643 30-169): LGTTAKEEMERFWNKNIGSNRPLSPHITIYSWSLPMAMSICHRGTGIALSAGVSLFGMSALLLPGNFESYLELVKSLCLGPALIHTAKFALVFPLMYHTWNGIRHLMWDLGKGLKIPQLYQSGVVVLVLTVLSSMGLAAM
Sequence of complex II of the electron transport chain (O14521 57-159): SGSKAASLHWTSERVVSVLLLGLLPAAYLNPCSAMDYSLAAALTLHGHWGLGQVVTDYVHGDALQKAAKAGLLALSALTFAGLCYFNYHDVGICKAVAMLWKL

H295R cells [5] = test: Reducing activity of H295R cells (resazurin reduction, PrestoBlue); format: cell-based, human
Description: (§2) To measure ATP levels and reducing potentials of H295R cells, these cells were cultured in 96-well flat bottom cell culture plates (BD Biosciences) plated at 50,000 cells in 100 μl. The cells were plated in DMEM media without glucose (GIBCO 11966)+10 mM galactose+5 mM sodium-HEPES+2 mM glutamine (addition)+1 mM sodium pyruvate+100 U/ml penicillin/streptomycin+either 0% or 5% fetal calf serum. After overnight (16-20 h) incubation, 20 μl of medium containing 5% fetal calf serum as well as the aliquots of ATR-101 required to produce the final concentrations were added to the cells. To measure ATP levels, 100 μl of the CellTiter-Glo® (Promega Corp., Madison, Wis.) reagent was added to lyse the cells at the indicated times, and luciferin luminescence was measured to determine the amount of ATP in the lysate. To measure reducing activity, PrestoBlue® Cell Viability reagent (Life Technologies Corp.) was added to the cells immediately after ATR-101. The cells were incubated at 37° C. with CO2, and resorufin fluorescence was measured at the times indicated.
Cellular reducing activity was determined by measuring resazurin reduction using the PrestoBlue® Cell Viability Reagent (Invitrogen). […] Low to moderate concentrations of ATR-101 increased reducing activity, but had little effect on ATP levels. High concentrations of ATR-101 reduced both reducing activity and ATP levels, presumably because of a decrease in cell viability.
To determine if the culture of H295R cells in the presence of MβCD altered ATR-101 entry into cells, the effects of MβCD on ATR-101 induced changes in reducing activity were examined (FIG. 12D-F). Culture in the presence of MβCD alone had little effect on the reducing activity of the cells (FIG. 12E). […] The reduction in reducing activity was likely related to the reduction in ATP levels caused by MβCD complexed with cholesterol.

[6] = Tissue distribution of ATR-101 in rats; format: in vivo; conditions: for Kp at 7 days: rat, female rats, 100 mg/kg/day for 7 days, N=3
Description: (§3) Tissue distribution of ATR-101 in 3 rats and 3 dogs was examined. ATR-101 concentrations were measured in plasma, red blood cells, adrenal gland, liver, kidney, skeletal muscle, ovary, subcutaneous fat, and cerebral spinal fluid. […] ATR-101 concentrations in rats were higher in adrenal gland (˜2×) and ovary (˜1.4×) than in plasma. […] ATR-101 concentrations in dogs were similar in adrenal gland and plasma.

adrenal gland [7] = test: Adrenal gland weights in dogs after 28 days; format: in vivo
Description: Left and right adrenal glands from male and female dogs treated with various doses of ATR-101 (0 mg/kg/day, 0.3 mg/kg/day, 3 mg/kg/day, or 30 mg/kg/day) for 28 days were collected at necropsy and weighed. Dose-related changes in adrenal gland weights occurred in both sexes (FIGS. 16A and 17A). Absolute and relative (adrenal-to-body (Adrenal:BW (%)) and adrenal-to-brain (Adrenal:BrW) weight ratios) adrenal weights were decreased 14% to 55% in both sexes at ≧3 mg/kg/day (FIGS. 16A-C and 17A-C). After the 4 week recovery period, adrenal weights remained decreased 6% to 11% in males at 3 mg/kg/day and 10% to 32% in both sexes at 30 mg/kg/day. […] Histologic changes in the adrenal glands persisted after the recovery period.

[8] = tested on: cortisol produced by H295R cells xenografted into SCID mice; test: Urinary cortisol levels in mice with H295R xenotransplants (DetectX cortisol assay kit); format: in vivo; conditions: 700 then 300 mg/kg/day; from 22 days after cell injection
Description: FIG. 8 depicts the urinary cortisol levels in mice with H295R xenotransplants treated with vehicle or ATR-101. Randomized cohorts of 10 mice injected with H295R cells were administered 700 mg/kg/day ATR-101 for 4 days followed by 300 mg/kg/day ATR-101 or vehicle by gavage beginning 14 days after cell injection. Urine was collected on the days indicated beginning at 22 days after cell injection (8 days after the start of ATR-101 or vehicle administration), and the cortisol levels were determined using a DetectX® cortisol assay kit (Arbor Assays).
as §1

H295R cells [9] = test: ATP levels of H295R cells (CellTiter-Glo luminescence); format: cell-based, human
Description: as §2
To investigate the mechanism whereby ATR-101 kills cells in culture, the effects of cholesterol depletion on the ATP levels of H295R cells cultured in the presence of ATR-101 was investigated. The cells were cultured in the presence of methyl-β-cyclodextrin (MβCD), which can sequester cholesterol and thereby deplete free cholesterol in the cells. […] MβCD increased the concentration of ATR-101 required for half-maximal depletion of ATP levels more than 4-fold.
To determine if the effect of MβCD on ATR-101 cytotoxicity was due to cholesterol depletion, H295R cells were cultured in the presence of the equivalent amount of MβCD complexed with cholesterol (FIG. 12C). […] The protection of H295R cells from the cytotoxicity of ATR-101 by culture in the presence of MβCD was therefore due to cholesterol depletion in these cells.

[10] = Tissue distribution of ATR-101 in dogs; format: in vivo
Description: as §3

[11] = tested on: ACC-derived xenotransplants (H295R); test: High dose ATR-101 on H295R xenotransplants in SCID mice (Example 7); format: in vivo; conditions: 1,000 mg/kg/day oral; 3 mice per group
Description: The effects of a high dose of ATR-101 on ACC-derived xenotransplants in SCID mice were also studied. Xenografts were produced as previously described with 3 mice in the ATR-101 treated group and 3 mice in the control group.

ACTH-stimulated cortisol = test: Basal and ACTH-stimulated plasma cortisol levels in dogs; format: in vivo
Description: […] 6 dogs/sex/dosage group were studied. […] Plasma cortisol concentrations (ng/ml) in male and female dogs were determined prior to ACTH stimulation and 0.5 and 1 hour after ACTH stimulation.

[12] = tested on: adrenocortical carcinoma (ACC); conditions: cited from earlier work

CC(C)c1cccc(C(C)C)c1NC(=O)NCC1(c2ccc(N(C)C)cc2)CCCC1 [ATR-101, N-(2,6-bis(1-methylethyl)phenyl)-N′-((1-(4-(dimethylamino)phenyl)cyclopentyl)-methyl)urea hydrochloride]
decrease in tumor size ([1]; 300 mg/kg/day oral gavage, 8 days after start, n=3, relative standard deviation 32%, control increased 400%): 50% | time to resumption of tumor growth after change to Formulation II ([1]; 300 mg/kg/day, formulation changed after first week): within two days | body condition score (BCS) ([1]; 300 mg/kg/day, treatment group, control 2.0): 3.0 | tumor size versus control group ([1]; 15 days after beginning of administration, p<0.05): significantly smaller | time to resumption of tumor growth after start of administration ([1]; Example 2): within eight days | tumor size ([1]; Example 2, 300 mg/kg/day, six days after start, n=2): decreased to undetectable size | tumor size as fraction of size of tumors in control mice ([1]; Example 2, 13 days after start): one-eighth to one-third | regression of xenograft relative to size before administration ([1]; all mice with tumors smaller than 300 mm^3): less than half of its size | time at which tumors exceeded pre-treatment size ([1]; both experiments): 8 to 15 days | time at which tumors resumed growth after start of administration ([1]; both experiments): 7 to 9 days | time of maximal therapeutic effect after start of administration ([1]; both experiments): 6 to 8 days | post-mortem tumor weight (mean) ([1]; first experiment, surviving treated mice, SD of the mean 0.13 g, control 1.23 g, p<0.05): 0.71 g | total body weight (mean) ([1]; first experiment, treatment group, SD of the mean 1 g, control 19 g): 24 g | effect on tumor growth in mice with large tumors ([1]; two mice with tumors of 300 mm^3 and 900 mm^3): did not halt the tumor growth | body weight versus vehicle ([2]; 700 then 300 mg/kg/day): no significant difference | median time until xenograft formation versus vehicle-treated group ([2]; 700 then 300 mg/kg/day): more than twice as long | survival ([2]; 100 days after injection): All the mice were alive | mice that developed palpable xenografts ([2]; of 10 mice, 700 mg/kg/day 4 days then 300 mg/kg/day by gavage from 14 days after injection, vehicle 7 of 10): 2 | xenograft size ([2]; the 2 xenografts, 100 days after injection): < 500 mm^3 | adrenal gland histopathology findings (adrenal gland [3]): fibrosis; also recorded: vacuolation; also recorded: cortical atrophy | effect on complex II of the electron transport chain [4]: inhibit | reducing activity in cells cultured in presence of MβCD (H295R cells [5]; 2 mM MβCD): larger increase in reducing activity | resazurin fluorescence signal, higher concentrations (H295R cells [5]; ATR-101 concentrations higher than 8 μM): reduced the fluorescence | reducing activity in cells cultured with MβCD complexed with cholesterol (H295R cells [5]; MβCD complexed with cholesterol, in absence and presence of ATR-101): lower reducing activities | resazurin fluorescence signal, low concentrations (H295R cells [5]; up to 8 μM ATR-101): increased the fluorescence signal | Kp at 7 days ([6]; adrenal gland (relative to plasma), read-out: adrenal gland concentration relative to plasma): ~2 | Kp at 7 days ([6]; ovary (relative to plasma), read-out: ovary concentration relative to plasma): ~1.4 | blood-brain barrier crossing ([6]; rats): does not appear to cross the blood-brain barrier | level in cerebral spinal fluid (CSF) ([6]; rats, likely contamination of CSF with blood): Low levels | histologic changes in adrenal glands after recovery period (adrenal gland [7]; after 4 week recovery): persisted | histologic changes associated with adrenal weight changes (adrenal gland [7]; both sexes, ≧3 mg/kg/day): adrenal cortical atrophy, fibrosis, and vacuolation | average urinary cortisol levels versus vehicle [8]: lower | reduction of ATP luminescence signal (H295R cells [9]; 64 μM, 4 hours): about 90% | increase by MβCD of ATR-101 concentration required for half-maximal depletion of ATP levels (H295R cells [9]; 2 mM MβCD): more than 4 fold | ATP levels of cells cultured in presence of MβCD (H295R cells [9]; 2 mM MβCD, up to 32 μM ATR-101): unaffected | EC50 (H295R cells [9]; Homo sapiens, NCI-H295R, 4 hours, read-out: concentration with half-maximal effect on ATP luminescence signal): 16 µM | ATP level in cells cultured with MβCD complexed with cholesterol (H295R cells [9]; MβCD (2 mM) complexed with cholesterol): further reduction | blood-brain barrier crossing ([10]; dogs): does not appear to cross the blood-brain barrier | adrenal gland concentration compared with plasma ([10]; female dogs, 3 mg/kg/day for 7 days, N=3): similar | tumor growth versus vehicle treated controls [11]: significantly reduced tumor growth | cortisol during recovery period (ACTH-stimulated cortisol; days 42 and 56, drug-free recovery): reversal of the cortisol-suppressive effects | ACTH responses (plasma cortisol) (ACTH-stimulated cortisol; male and female dogs, 3 mg/kg/day and 30 mg/kg/day, from day 7 through day 14 and day 28): Marked drug-associated decreases

Clc1ccc(C(c2ccccc2Cl)C(Cl)Cl)cc1 (centres unmarked) [mitotane]
proportion of patients with increased progression-free survival ([12]; ACC patients): one-quarter to one-third | elimination half-life ([12]; accumulates in fat tissue): months | average delay of disease progression ([12]; patients that derive a therapeutic benefit): five | blood level required for therapeutic benefit ([12]; patients): 14000 ng/mL | toxic blood level ([12]; patients): 20 mg/L
